Entries after “also recorded” stand apart in the source; their conditions may differ. Bridges are numbered along the chain shown (N, C = ends).
What was measured:
p75^NTR = assay: 125I-BDNF binding to p75NTR; conditions: 100 μM Zn2+, n = 3; 120 min
Method: Full length (1-118) mouse NGF purified by HPLC from 2.5S NGF (purity greater than 95%) was obtained from Cedarlane Laboratories (Toronto, Ont). The iodination of NGF was performed as previously described (Sutter, A, Riopelle, R. J., Harris-Warrick, R. M. & Shooter, E. M. Nerve growth factor receptors. J. Biol. Chem. 254, 5972-5982 (1979)). […] PC12 cells were grown in RPMI with 10% heat inactivated donor horse serum and 5% fetal calf serum. Each data point was set up in a single tube containing ^125 I-NGF (at the required concentration), 400,000 cells (for a final call concentration of 10^6 /ml), BDNF (at 40 nM for TrkA binding) and NGF (at 10 nM for non-specific binding) as required. The tubes were incubated for 2 hr at 4° C. and 100 μl aliquots (providing triplicate data points for each sample) were transferred to 400 μl microcentrifuges containing 200 μl of 10% glycerol in HKR. Tubes were centrifuged for 2 minutes at 5,000 rpm, the tip containing the cell pellet cut off and radioactivity bound to the cells was determined.
Human recombinant BDNF and human recombinant NT-3 were obtained from Alomone Laboratories (Israel). The iodination, crosslinking, and binding experiments using BDNF and NT-3 were performed using the methods described above for NGF. Neurite outgrowth assays were performed as described in the presence of 4.0 nM NT-3 or 8.0 nM BDNF.

TrkA receptor [1] = assay: NGF-dependent TrkA phosphorylation in PC12 cells, metal ions; assay type: cell-based, rat
Method: Zn^2+ and/or other additives were allowed to equilibrate with NGF for 2 hours at 4° C. prior to addition of cells. PC12 cells were used at 10^6 cells/ml and incubated with 40 pM NGF for 15 minutes at 37° C. At the conclusion of the reaction, cells were washed, lysed in TBS containing 10% glycerol, 1% Triton X-100, 1 mM PMSF, 10 μg/ml aprotinin, 1 μg/ml leupeptin and 500 μM orthovanadate (lysis buffer, 10^8 cells/ml). The cellular debris was removed by centrifugation and the soluble proteins incubated with an anti-TrkA cytoplasmic domain antibody. Antibody complexes were isolated by incubating with immobilized protein G (Pierce Ultralink; 70 μl of a 50% slurry) for 2 hours at 4° C. The solid phase was washed extensively with lysis buffer and the pellet dissolved in SDS sample buffer. Proteins were resolved using 6% SDS PAGE and Western analysis performed with anti-phosphotyrosine 4G10 (UBI) visualized with ECL (Amersham).

TrkA = tested on: T1, TrkA; assay: Binding of 125I-NGF to TrkA on PC12 cells (p75NTR blocked with BDNF); set-up: species or system rat; conditions: 100 μM; in presence of 40 nM BDNF; ± SEM; 120 min
T1 construct: Receptor cross-linking studies were performed on PC12 rat pheochromocytoma cells; endogenous in cells; host or cells: PC12 rat pheochromocytoma cells (ATCC CRL 1721)
Method: PC12 cells were grown in RPMI with 10% heat inactivated donor horse serum and 5% fetal calf serum. […] The tubes were incubated for 2 hr at 4° C. and 100 μl aliquots (providing triplicate data points for each sample) were transferred to 400 μl microcentrifuges containing 200 μl of 10% glycerol in HKR. Tubes were centrifuged for 2 minutes at 5,000 rpm, the tip containing the cell pellet cut off and radioactivity bound to the cells was determined.

DRG neurons [2] = assay: NGF-mediated neurite outgrowth of DRG neurons, metal ions; assay type: cell-based, chick; conditions: 50 and 100 μM
Method: Dissosiated cells enriched for sensory neurons were prepared from ED8 chick DRG as described (Dostaler, S. M. et al. Characterization of a distinctive motif of the low molecular weight neurotrophin receptor that modulates NGF-mediated neurite growth. Eur. J. Neurosci. 8, 870-879 (1996)). Neurons were seeded at a density of 800-1000 cells/well in Ham's F-12 containing 5% FCS and NGF at 10 pM into wells of Terasaki plates treated with polyysine. The cells were incubated with the indicated additives at 37° C. in a 5% CO2 atmosphere. The cells on the entire lower horizontal surface of the well were scored for neurite growth at 18-20 hours using an inverted microscope fitted with phase contrast optics. A neurite was scored if its caliber from the origin to terminal was constant and its length was equal to or greater than 1.5 cell body diameters. Neurite growth was corrected for background (no NGF).

NGF = target: T2, NGF (Mus musculus, UniProt P01139); assay: NGF protomer crosslinking with BS3 (NGF conformation), metal ions; assay type: biochemical
T2 construct: homodimer

[3] = tested on: kindling-induced seizures; conditions: kindling animal model of epilepsy (Rashid et al. 1995); cited from earlier work
TrkA receptor [4] = assay: Inhibition of TrkA phosphorylation by R11 in PC12 cells (Example 3); assay type: cell-based, rat
Method: Referring to FIG. 7C, the ability of R11 to influence TrkA phosphorylation was determined by incubating 10^7 PC12 cells (prepared as described above) in one mL HKR buffer with 50 ng NGF and the indicated concentrations of peptides for 15 min at 37° C. The cells were isolated by centrifugation, solubilized in lysis buffer and the TrkA receptor isolated as described above. The TrkA immunoprecipitated was dissociated in SDS reducing sample buffer and electrophoresed using a 6% polyacrylamide gel. The gel was then transferred to PVDF membrane (BioRad), probed with horseradish peroxidase-conjugated anti phosphotyrosine (RC20; Transduction) and developed using ECL (Amersham). All procedures were carried out according to the manufacturers' instructions.

DRG neurons [5] = assay: Survival of chick DRG neurons at 24 hours; assay type: cell-based; conditions: 500 μM

T2 sequence (P01139 122-239): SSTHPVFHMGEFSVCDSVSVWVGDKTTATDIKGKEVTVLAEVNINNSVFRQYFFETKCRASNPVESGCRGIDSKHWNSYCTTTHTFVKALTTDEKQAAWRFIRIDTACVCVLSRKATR
T1 sequence (P01139 122-239): as above

Compound	% Maximum p75NTR binding, 125I-BDNF (p75^NTR) [% Maximum binding]	NGF-induced TrkA phosphorylation (TrkA receptor [1]; 100 μM, PC12 cells)	Basal TrkA phosphorylation (TrkA receptor [1]; no NGF)	steady-state specific binding of 125I-NGF (0.5 nM) to TrkA (TrkA) [% Control]	NGF-induced neurite extension (DRG neurons [2])	Crosslinking of 125I-NGF to larger complexes (BSA or ovalbumin) (NGF)	NGF monomer crosslinking by BS3 (NGF; 0.1 nM 125I-NGF, CaEDTA together with Zn2+)	NGF Protomer Conformation (active/inactive) (NGF; 100 μM)	Crosslinking of NGF promoters after His modification (DEPC) (NGF; DEPC-modified NGF)	Inhibition of seizure and mossy fiber sprouting [3]	NGF-induced TrkA phosphorylation (TrkA receptor [4]; 200 μM, 50 ng NGF, 15 min at 37° C., PC12)	Basal TrkA phosphorylation (TrkA receptor [4]; no NGF)	Survival of neurons at 24 hours (DRG neurons [5])
[Zn+2] [Zn^2+]	10.0 ± 4.5	prevented phosphorylation	no effect on basal TrkA phosphorylation	19 ± 15	inhibited neurite extension	promoted	NGF monomer crosslinking was inhibited	active	not affected by Zn^2+; also recorded: abolished	–	–	–	–
NH2 -Cys-Gly-Ser-Glu-Val-Pro-Asn-Ser-Ala-Arg-Cys-Cys-Val-Cys-OH (H-CGSEVPNSARCCVC-OH; disulfide 1-14, 11-12) [R11, bicyclic peptide of NGF residues 68-58/108-110, two disulfide bonds]	–	–	–	–	–	–	–	–	–	inhibit both seizure and mossy fiber sprouting	abolished; also recorded: blocked	no influence	not influenced

— patent publication US6291247A, “Methods of screening for factors that disrupt neurotrophin conformation and reduce neurotrophin biological activity” (priority 1996, dated 2001)
